Patent US6784167B2, “17-beta-hydroxysteroid dehydrogenase-II inhibitors” (Bayer Pharmaceuticals Corporation, priority 2000, dated 2004)

| SMILES | melting point |
| --- | --- |
| CN1C(=O)C[C@H](c2ccccc2)[C@@H]1[C@H](O)c1ccc(C(=O)Nc2ccccc2)s1 (relative stereo) [Example 4, (±)-5-[(1S*)(5-(N-phenylcarbamoyl)(2-thienyl))hydroxymethyl](4R*,5R*)-1-methyl-4-phenylpyrrolidin-2-one] | 223 to 227 °C |
| CN1C(=O)C[C@H](c2ccccc2)[C@@H]1[C@H](O)/C=C/c1ccc(F)cc1 (relative stereo) [Example 15, (±)-(4R*,5R*)-5-[(2E)(1R*)-3-(4-fluorophenyl)-1-hydroxyprop-2-enyl]-1-methyl-4-phenylpyrrolidin-2-one] | 189 to 191 °C |
| CN1C(=O)C[C@H](c2ccccc2)[C@@H]1[C@H](O)CCc1ccc(F)cc1 (relative stereo) [Example 16, (±)-5-[(1R*)-3-(4-fluorophenyl)-1-hydroxypropyl](4R*,5R*)-1-methyl-4-phenylpyrrolidin-2-one] | 122 to 124 °C |
| CN1C(=O)C[C@@H]2c3ccccc3[C@@](O)(c3ccc(-c4ccccc4)s3)[C@@H]21 (relative stereo) [Example 24, (±)-(8S*,3aR*,8aR*)-8-hydroxy-1-methyl-8-(5-phenyl(2-thienyl))indano[2,1-b]pyrrolidin-2-one] | 178 to 180 °C |
| CN1C(=O)CC(c2ccccc2)C1C(O)c1cc(-c2ccccc2)cs1 (centres unmarked) [Example 42] | 165 °C |
| CN1C(=O)CC(c2ccccc2)C1C(O)c1ccc(C(=O)c2ccccc2)s1 (centres unmarked) [Example 63] | 202 °C (dec.) |
| CN1C(=O)CC(c2ccccc2)C1C(O)c1ccc(C(=O)c2ccc(F)cc2)s1 (centres unmarked) [Example 65] | 229 to 232 °C (dec.) |
| CN1C(=O)CC(c2ccc(N)cc2)C1C(O)c1ccc(-c2ccc(F)cc2)s1 (centres unmarked) [Example 86] | 209 °C |
| CN1C(=O)CC(c2ccccc2)C1C(O)c1ccc(-c2ccccc2)cc1 (centres unmarked) [Example 93] | 202 °C |
| CN1C(=O)CC(c2ccccc2)C1C(O)c1cccc(C(F)(F)F)c1 (centres unmarked) [Example 96] | 155 to 158 °C |
| CN(C)c1ccc(C(O)C2C(c3ccccc3)CC(=O)N2C)cc1 (centres unmarked) [Example 101] | 182 to 185 °C |
| CC(=O)Nc1cccc(-c2cccc(C(O)C3C(c4ccccc4)CC(=O)N3C)c2)c1 (centres unmarked) [Example 102] | 150 °C |
| CN1C(=O)CC(c2ccccc2)C1C(O)c1cccc(-c2cccc(F)c2)c1 (centres unmarked) [Example 103] | 187 °C |
| CN1C(=O)CC(c2ccccc2)C1C(O)c1cccc(-c2cccc(N)c2)c1 (centres unmarked) [Example 105] | 130 °C |
| CN1C(=O)CC(c2ccccc2)C1C(O)c1ccc2c(c1)OCO2 (centres unmarked) [Example 108] | 211 °C |
| CN1C(=O)CC(c2ccccc2)C1C(O)c1cccc(-c2ccc(O)cc2)c1 (centres unmarked) [Example 110] | 230 °C |
| CN1C(=O)CC(c2ccccc2)C1C(O)c1ccc(-c2ccc(F)cc2)cc1 (centres unmarked) [Example 111] | 117 °C |
| CN1C(=O)CC(c2ccccc2)C1C(O)c1cc2ccccc2o1 (centres unmarked) [Example 112] | 120 to 122 °C |
| CN1C(=O)CC(c2ccccc2)C1C(O)c1ccc(-c2ccc(F)cc2)o1 (centres unmarked) [Example 114] | 168 °C |
| CN1C(=O)CC(c2ccccc2)C1C(O)c1ccc(-c2cccc(N)c2)o1 (centres unmarked) [Example 119] | 98 °C |
| CN1C(=O)CC(c2ccccc2)C1C(O)C#Cc1cccc(O)c1 (centres unmarked) [Example 132] | 210 to 211 °C |
| CO[C@H](c1cccc(-c2ccccc2)c1)[C@H]1[C@@H](c2ccccc2)CC(=O)N1C [Example 143] | 136 °C |

More lines, now with the values ahead:

| melting point | SMILES |
| --- | --- |
| 110 °C (dec.) | CN1C(=O)C[C@H](c2ccccc2)[C@@H]1[C@H](O)c1ccc(-c2ccc(F)cc2)s1 (relative stereo) [Example 3a, (±)-(4R*,5R*)-5-{(1S*) [5-(4-fluorophenyl)(2-thienyl)]hydroxymethyl}-1-methyl-4-phenylpyrrolidin-2-one] |
| 232 °C | CN1C(=O)C[C@H](c2ccccc2)[C@@H]1[C@H](O)c1ccc(-c2cccnc2)s1 (relative stereo) [Example 3b, (4R,5R)-5-{(1S)-hydroxy[5-(3-pyridinyl)-2-thienyl]methyl}-1-methyl-4-phenyl-2-pyrrolidinone] |
| 194 °C | CN1C(=O)C[C@H](c2ccccc2)[C@@H]1[C@H](O)c1ccc(-c2ccc(F)c(Cl)c2)s1 (relative stereo) [Example 5, (±)-(4R*,5R*)-5-{(1S*)[5-(3-chloro-4-fluorophenyl)(2-thienyl)]hydroxymethyl}-1-methyl-4-phenylpyrrolidin-2-one] |
| 185 to 188 °C | Cc1ccc([C@@H](O)[C@H]2[C@@H](c3ccccc3)CC(=O)N2C)s1 (relative stereo) [Example 6, (±)-(4R*,5R*)-5-[(1S*)-hydroxy(5-methyl(2-thienyl))methyl]-1-methyl-4-phenylpyrrolidin-2-one] |
| 163 to 165 °C | Cc1cccc([C@@H](O)[C@H]2[C@@H](c3ccccc3)CC(=O)N2C)c1 (relative stereo) [Example 7, (±)-(4R*,5R*)-5-[(1R*)hydroxy(3-methylphenyl)methyl]-1-methyl-4-phenylpyrrolidin-2-one] |
| 75 °C | CC(=O)O[C@H](c1ccc(-c2ccc(F)cc2)s1)[C@H]1[C@@H](c2ccccc2)CC(=O)N1C (relative stereo) [Example 13, (±)-(4R*,5R*)5-{(1S*)[5-(4-fluorophenyl)(2-thienyl)]acetyloxymethyl}-1-methyl4-phenylpyrrolidin-2-one] |
| 173 °C | Cc1ccc(-c2ccc(C(O)C3C(c4ccccc4)CC(=O)N3C)s2)nc1 (centres unmarked) [Example 27] |
| 231 °C | CN1C(=O)CC(c2ccccc2)C1C(O)c1ccc(-c2cccc(C(=O)O)c2)s1 (centres unmarked) [Example 33] |
| 168 to 170 °C | COc1ccc(-c2ccc(C(O)C3C(c4ccccc4)CC(=O)N3C)s2)cc1 (centres unmarked) [Example 39] |
| 225 to 228 °C | CN1C(=O)CC(c2ccccc2)C1C(O)c1ccc(-c2ccc3ccccc3n2)s1 (centres unmarked) [Example 40] |
| 195 °C (dec.) | CN1C(=O)CC(c2ccccc2)C1C(O)c1cc2ccccc2s1 (centres unmarked) [Example 41] |
| 160 °C | CN1C(=O)CC(c2ccccc2)C1C(O)c1ccc(-c2cccc3ccccc23)s1 (centres unmarked) [Example 45] |
| 180 °C | CN1C(=O)CC(c2ccccc2)C1C(O)c1ccc(-c2cccc(F)c2)s1 (centres unmarked) [Example 46] |
| 97 °C | CC(=O)Nc1cccc(-c2ccc(C(O)C3C(c4ccccc4)CC(=O)N3C)s2)c1 (centres unmarked) [Example 48] |
| 190 °C (dec.) | COc1cc(-c2ccc(C(O)C3C(c4ccccc4)CC(=O)N3C)s2)cc(OC)c1OC (centres unmarked) [Example 49] |
| 194 to 195 °C (dec.) | CN1C(=O)CC(c2ccccc2)C1C(O)c1ccc(C=Cc2ccc(F)cc2)s1 (centres unmarked) [Example 56] |
| 155 to 157 °C | CN1C(=O)CC(c2ccccc2)C1C(O)c1ccc(Cc2ccc(F)cc2)s1 (centres unmarked) [Example 59] |
| 174 to 176 °C | CN1C(=O)CC(c2ccccc2)C1C(O)c1ccc(Sc2ccc(Cl)cc2)s1 (centres unmarked) [Example 60] |
| 95 °C | CN1C(=O)CC(c2ccccc2)C1C(O)c1ccc(-c2c(F)cc(F)cc2F)s1 (centres unmarked) [Example 75] |
| 195 °C | CSc1nccc(-c2ccc(C(O)C3C(c4ccccc4)CC(=O)N3C)s2)n1 (centres unmarked) [Example 77] |
| 215 °C | COc1ccc(C2CC(=O)N(C)C2C(O)c2ccc(-c3ccccc3)s2)cc1 (centres unmarked) [Example 82] |
| 129 to 131 °C | Cc1ccc(C(O)C2C(c3ccccc3)CC(=O)N2C)cc1 (centres unmarked) [Example 95] |
| 160 to 161 °C | COc1cccc(C(O)C2C(c3ccccc3)CC(=O)N2C)c1 (centres unmarked) [Example 97] |
| 154 to 157 °C | COc1ccc(C(O)C2C(c3ccccc3)CC(=O)N2C)cc1 (centres unmarked) [Example 100] |
| 183 °C | COc1cccc(-c2cccc(C(O)C3C(c4ccccc4)CC(=O)N3C)c2)c1 (centres unmarked) [Example 107] |
| 180 to 182 °C | COc1ccc2oc(C(O)C3C(c4ccccc4)CC(=O)N3C)cc2c1 (centres unmarked) [Example 113] |
| 121 to 123 °C | CN1C(=O)C[C@H](c2ccccc2)[C@@H]1[C@H](F)c1ccc(-c2ccc(F)cc2)s1 [Example 144] |
| 180 to 182 °C | CN1C(=O)C[C@H](c2ccccc2F)[C@@H]1[C@H](O)c1ccc(-c2cccnc2)s1.Cl [Example 152] |
